# Measurements as given in patent publication US6984649B1, “Pyridine derivatives” (Bayer Aktiengesellschaft, priority 2000, dated 2006).
# Where a name gives a salt, the structure may show the parent alone.
# Test system: A549 human lung epithelium cell line
# Test: RANTES production in response to TNF-α from A549 cells
# Assay type: cell-based
# Conditions: A549 cells, 100 ng/ml TNF-α, read-out: Cellular activity grade (A549) (Cellular IC50)
# Procedure, shortened: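 Cells (4×10^4/well) in D-MEM/10% FCS preincubated 1 h at 37 °C with compound in 1% DMSO, then stimulated with 100 ng/ml TNF-α for 24 h. Supernatant RANTES quantified by Eu-labelled sandwich immunoassay (time-resolved fluorescence, ex 340/em 615 nm) against recombinant human RANTES standard.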
row,SMILES,IC50 [µM]
1,"Nc1nc(-c2ccccc2O)cc2c1CNC2Cc1ccccc1 (stereo in doubt) [Example 20-3, 2-[(1S)-4-amino-1-benzyl-2,3-dihydro-1H-pyrrolo[3,4-c]pyridin-6-yl]phenol hydrochloride]",1 to 10

# Same assay, conditions: Homo sapiens, A549, A549 cells, 100 ng/ml TNF-α, read-out: Cellular activity grade (A549) (Cellular IC50)
row,SMILES,IC50 [µM]
1,"CCCNc1nc(-c2ccccc2O)cc(C2CCCNC2)c1C#N (stereo not drawn) [Example 4-2, 6-(2-hydroxyphenyl)-4-(3-piperidinyl)-2-(propylamino)nicotinonitrile hydrochloride]",> 10
2,"N#Cc1c(C2=CCCNC2)cc(-c2ccccc2O)nc1N [Example 1-9, 2′-amino-6′-(2-hydroxyphenyl)-1,2,5,6-tetrahydro-3,4′-bipyridine-3′-carbonitrile hydrochloride]",< 1
3,"NCCNc1cc(-c2c(O)cccc2OCC2CC2)nc2c1COC(=O)N2 [Example 35-1, 5-[(2-aminoethyl)amino]-7-[2-(cyclopropylmethoxy)-6-hydroxyphenyl]-1,4-dihydro-2H-pyrido[2,3-d][1,3]oxazin-2-one hydrochloride]",< 1
4,"Nc1nc(-c2ccccc2O)cc(C2CCCNC2)c1CO (stereo not drawn) [Example 11-1, 2-[6-amino-5-(hydroxymethyl)-4-(3-piperidinyl)-2-pyridinyl]phenol hydrochloride]",< 1
5,"Nc1nc(-c2ncccc2O)cc(C2CCCNC2)c1CO (stereo not drawn) [Example 11-3, 6′-amino-5′-(hydroxymethyl)-4′-3-piperidinyl)-2,2′-bipyridin-3-ol hydrochloride]",< 1
6,"Nc1nc(-c2ccccc2O)cc2c1C(=O)N1CCCC2C1 (stereo not drawn) [Example 8-1, 6-amino-4-(2-hydroxy-phenyl)-5,9-diaza-tricyclo[7.3.1.0^2,7]trideca-2(7),3,5-trien-8-one]",1 to 10
7,"CC(=O)Nc1nc(-c2ccccc2O)cc(C2CCCNC2)c1C#N (stereo not drawn) [Example 6-1, N-[3-cyano-6-(2-hydroxyphenyl)-4-(3-piperidinyl)-2-pyridinyl]acetamide hydrochloride]",1 to 10

# Other lines, results leading:
row,IC50 [µM],SMILES
1,1 to 10,"Nc1nc(-c2ccccc2O)cc2c1CN[C@@H]2Cc1ccccc1 [Example 20-2, 2-[(1R)-4-amino-1-benzyl-2,3-dihydro-1H-pyrrolo[3,4-d]pyridin-6-yl]phenol hydrochloride]"
2,< 1,"N#Cc1c(NC2CCCNC2)cc(-c2ccccc2O)nc1N (stereo not drawn) [Example 34-4, 2-amino-6-(2-hydroxyphenyl)-4-(3-piperidinylamino)nicotinonitrile hydrochloride]"
3,< 1,"N#Cc1c(C2CCNCC2)cc(-c2c(O)cccc2OCC2CC2)nc1N [Example 2-3, hydrochloride]"
4,> 10,"N#Cc1c(C2CCCNC2)cc(-c2c(N)cccc2O)nc1N (stereo not drawn) [Example 1-10, 2-amino-6-(2-amino-6-hydroxyphenyl)-4-(3-piperidinyl)nicotinonitrile hydrochloride]"
5,1 to 10,"CC(O)c1c(C2CCCNC2)cc(-c2ccccc2O)nc1N (stereo not drawn) [Example 15-1, 2-[6-amino-5-(1-hydroxyethyl)-4-(3-piperidinyl)-2-pyridinyl]phenol hydrochloride]"
6,< 1,O=C1Nc2nc(-c3ccccc3O)cc(C3=CCCNC3)c2CO1 [Example 18-6]
7,< 1,"N#Cc1c(C2CCCNC2)cc(-c2c(O)cccc2O)nc1N (stereo not drawn) [Example 2-1, 2-amino-6-(2,6-dihydroxyphenyl)-4-(3-piperidinyl)nicotinonitrile hydrochloride]"
8,< 1,"Oc1cccc(OCC2CC2)c1-c1cc(C2CCCNC2)c2c(n1)NCOC2 (stereo not drawn) [Example 17-1, 3-(cyclopropylmethoxy)-2-[5-(3-piperidinyl)-1,4-dihydro-2H-pyrido[2,3-d][1,3]oxazin-7-yl]-phenol hydrochloride]"
9,1 to 10,"CC1OC(=O)Nc2nc(-c3ccccc3O)cc(C3CCCNC3)c21 (stereo not drawn) [Example 18-3, hydrochloride]"
10,1 to 10,"Nc1nc(-c2ccccc2O)cc(C2CCCNC2)c1C(O)c1ccccc1 (stereo not drawn) [Example 15-2, 2-[6-amino-5-[hydroxy(phenyl)methyl]-4-(3-piperidinyl)-2-pyridinyl]phenol hydrochloride]"
